How the values were obtained:
[1] = Compound stability in a biological matrix (human plasma); assay type: in vitro ADME; settings: 10 μg/mL, 37° C., LC-MS/MS
Experimental: (§1) A compound was dissolved in DMSO as a 1 mg/mL stock solution. An ACN solution of the compound at 100 μg/mL was prepared from the stock solution, 10 μL of which was added to a biological matrix (90 μL) to the final concentration of 10 μg/mL for the compound. The mixtures of the compound in a biological matrix were incubated at 37° C. for 0, 0.5, 1, or 4 h. At each time point, ACN (900 μL) was added to a mixture. After the mixture was centrifuged at 15,000 rpm for 5 min, the supernatant was mixed with the same volume of H2O (1% TFA) and then analyzed by LC-MS/MS. The results are summarized in Table 3, wherein Cbz-AAM is (2R,3S,4R,5S)-6-((4-((S)-6-acetamido-2-(((benzyloxy)carbonyl)amino)hexan-amido)phenyl)(phenyl)methoxy)-2-(acetoxymethyl)-5-(2-azidoacetamido)tetrahydro-2H-pyran-3,4-diyl diacetate.

MDA-MB-231 = assay: Flow cytometry analysis of cell labeling (azido labeling efficiency); assay type: cell-based; settings: MDA-MB-231 (breast), azido compound 25 μM, 48 h
Experimental: (§2) Cells (2.0×10^6 cells/mL, 2 mL) were seeded in a 6-well culture plate and attached at 37° C. overnight. After washed thrice with PBS, the cells were incubated with an azido compound (25 μM) at 37° C. for 48 h. After washed thrice with PBS, the cells were incubated with DBCO-biotin (50 μM) in 500 μL serum free DMEM at 37° C. for 1 h. The cells were washed thrice with PBS and then incubated with streptavidin-Cy5 (5 μg/mL) in 500 μL serum free DMEM at 37° C. for 1 h. The cells were washed thrice with PBS, followed by addition of 300 μL 1×trypsin/EDTA for digestion. The lifted cells were transferred to a 1.5 mL EP tube, centrifuge at 1,000 rpm for 3 min, and washed with PBS once. Finally, 500 μL PBS containing 4% PFA was added to the cell pellet to fix the cells. The cell suspension was transferred to a flow tube and mixed with 10 μL of a PI working solution (50 μg/mL) at room temperature for 30 min before being subjected to flow cytometry.
(§3) Flow cytometry was used to characterize the labeling efficiency of a compound provided herein. After cells were labeled with an azido group, DBCO-biotin was added to specifically react with the azido group. Avidin-Cy5 was added bind to the cell surface biotin for a flow cytometry analysis. Dead cells were stained with PI and excluded from the analysis. Results were presented as the mean fluorescence of live cells, compared with PBS as a negative control and Ac4ManNAz (AAM) as a positive control, Ac4ManNAz (AAM, CAS: 361154-30-5).

A549 cells = assay: as above; assay type: cell-based; settings: Homo sapiens; A549 cells (lung); azido compound 25 μM, 48 h; mean fluorescence of live cells compared with PBS negative control
Experimental: as §2, §3

OVCAR3 = assay: as above; assay type: cell-based; settings: OVCAR3 (ovarian), azido compound 25 μM, 48 h
Experimental: as §2, §3

[2] = Compound stability in a biological matrix (mouse plasma); assay type: in vitro ADME; settings: 10 μg/mL, 37° C., LC-MS/MS
Experimental: as §1

[3] = mean fluorescence of live cells compared with Ac4ManNAz (AAM) positive control
[4] = mean fluorescence of live cells compared with PBS negative control

Row | SMILES | Compound Remaining (%) Human 1 h [1] [%] | Compound Remaining (%) Human 4 h [1] [%] | Labeling Efficiency AAM % (MDA-MB-231; [3]) [%] | Labeling Efficiency PBS % (MDA-MB-231; [4]) [%] | activity at 25 µM (A549 cells) [%] | Labeling Efficiency AAM % (OVCAR3; [3]) [%] | Labeling Efficiency PBS % (OVCAR3; [4]) [%] | Compound Remaining (%) Mouse 1 h [2] [%] | Compound Remaining (%) Mouse 4 h [2] [%]
1 | CC(=O)NCCCC[C@H](NC(=O)OCc1ccccc1)C(=O)Nc1ccc(C(OC2OC(COC(C)=O)C(OC(C)=O)C(OC(C)=O)C2NC(=O)CN=[N+]=[N-])c2ccnn2C)cc1 (stereo partly drawn) [Compound A8, 1-O-(1-(2-methylpyrazol-3-yl)-1-(4-(6-acetamido-2(S)-(benzyloxycarbonyl-amino)hexanamido)phenyl)methyl)-2-(2-azidoacetylamino)-2-deoxy-3,4,6-tri-O-acetyl-D-mannopyranoside] | 61 | 16 | 31 | 209 | 196 | 24 | 132 | 76 | 23
2 | CC(=O)NCCCC[C@H](NC(C)=O)C(=O)Nc1ccc(C(OC2OC(COC(C)=O)C(OC(C)=O)C(OC(C)=O)C2NC(=O)CN=[N+]=[N-])c2ccnn2C)cc1 (stereo partly drawn) [Compound A14, 1-O-(1-(2-Methylpyrazol-3-yl)-1-(4-(2(S),6-diacetamidohexanamido)phenyl)-methyl)-2-(2-azidoacetylamino)-2-deoxy-3,4,6-tri-O-acetyl-D-mannopyranoside] | 63 | 19 |  |  | 620 |  |  | 89 | 40
3 | CC(=O)NCCCC[C@H](NC(C)=O)C(=O)Nc1ccc(C(OC2OC(COC(C)=O)C(OC(C)=O)C(OC(C)=O)C2NC(=O)CN=[N+]=[N-])c2nccs2)cc1 (stereo partly drawn) [Compound A15, 1-O-(1-(Thiazol-2-yl)-1-(4-(2(S),6-diacetamidohexanamido)phenyl)methyl)-2-(2-azidoacetylamino)-2-deoxy-3,4,6-tri-O-acetyl-D-mannopyranoside] | 2 | <2 |  |  | 318 |  |  | 2 | <2
4 | CC(=O)NCCCC[C@H](NC(C)=O)C(=O)Nc1ccc(C(OC2OC(COC(C)=O)C(OC(C)=O)C(OC(C)=O)C2NC(=O)CN=[N+]=[N-])c2cncs2)cc1 (stereo partly drawn) [Compound A16, 1-O-(1-(Thiazol-5-yl)-1-(4-(2(S),6-diacetamidohexanamido)phenyl)methyl)-2-(2-azidoacetylamino)-2-deoxy-3,4,6-tri-O-acetyl-D-mannopyranoside] | 97 | 86 |  |  | 136 |  |  | 93 | 73
5 | CC(=O)NCCCC[C@H](NC(C)=O)C(=O)Nc1ccc(C(OC2OC(COC(=O)Cc3cccnc3)C(OC(C)=O)C(OC(C)=O)C2NC(=O)CN=[N+]=[N-])c2ccnn2C)cc1 (stereo partly drawn) [Compound A17, 1-O-(1-(2-Methylpyrazol-3-yl)-1-(4-(2(S),6-diacetamidohexanamido)phenyl)-methyl)-2-(2-azidoacetylamino)-2-deoxy-3,4-di-O-acetyl-6-O-(pyridin-3-ylacetyl)-D-mannopyranoside] | 63 | 10 |  |  | 161 |  |  | 77 | 28
6 | CC(=O)NCCCC[C@H](NC(C)=O)C(=O)Nc1ccc(C(OC2OC(COC(=O)C3CCN(C)CC3)C(OC(C)=O)C(OC(C)=O)C2NC(=O)CN=[N+]=[N-])c2ccnn2C)cc1 (stereo partly drawn) [Compound A18, 1-O-(1-(2-Methylpyrazol-3-yl)-1-(4-(2(S),6-diacetamidohexanamido)phenyl)-methyl)-2-(2-azidoacetylamino)-2-deoxy-3,4-di-O-acetyl-6-O-(1-methylpiperidin-4-ylcarbonyl)-D-mannopyranoside] | 95 | 85 |  |  | 104 |  |  | 100 | 93

From patent US20260200964A1, “MONOSACCARIDES, PHARMACEUTICAL COMPOSITIONS, AND DIAGNOSTIC AND THERAPEUTIC APPLICATIONS” (Surio Therapeutics Co., LTD., priority 2022, published 2026)
